Laboratory results from ChEMBL document CHEMBL4680194, “Synthesis and biological evaluation of 1,2,4-triazole derivatives as potential neuroprotectant against ischemic brain injury” (Eur J Med Chem, 2020).
Active and inactive are the calls of the source. The calls are words filed in the database; no cut-off is given here.

How the values were obtained:
PC-12 [1] = test: Cytoprotective activity against SNP-induced cell death in rat PC12 cells assessed as increase in cell viability at 10 uM incubated for 1 hr followed by SNP stimulation and measured after 24 hrs in presence of LY294002 by MTT assay; type: functional, cell-based; details: time 25.0 hrs
[2] = Toxicity in […] assessed as body weight at 400 mg/kg, ip measured on day 1 (reference value: 24.4 to 28.4 g); type: organism-based; details: in vivo, 24 h, time 1 day
[3] = biological target: T1, Nuclear factor erythroid 2-related factor 2 (Rattus norvegicus) (UniProt O54968); test: Induction of Nrf2 nuclear translocation in rat PC-12 cells assessed as H2O2-induced GSH level at 2.5 uM incubated for 1 hr followed by H2O2 stimulation and measured after 5 hrs (reference value: 65.52 +/- 1.44 nM/mg); type: cell-based; details: time 6.0 hrs
T1 sequence (whole entry): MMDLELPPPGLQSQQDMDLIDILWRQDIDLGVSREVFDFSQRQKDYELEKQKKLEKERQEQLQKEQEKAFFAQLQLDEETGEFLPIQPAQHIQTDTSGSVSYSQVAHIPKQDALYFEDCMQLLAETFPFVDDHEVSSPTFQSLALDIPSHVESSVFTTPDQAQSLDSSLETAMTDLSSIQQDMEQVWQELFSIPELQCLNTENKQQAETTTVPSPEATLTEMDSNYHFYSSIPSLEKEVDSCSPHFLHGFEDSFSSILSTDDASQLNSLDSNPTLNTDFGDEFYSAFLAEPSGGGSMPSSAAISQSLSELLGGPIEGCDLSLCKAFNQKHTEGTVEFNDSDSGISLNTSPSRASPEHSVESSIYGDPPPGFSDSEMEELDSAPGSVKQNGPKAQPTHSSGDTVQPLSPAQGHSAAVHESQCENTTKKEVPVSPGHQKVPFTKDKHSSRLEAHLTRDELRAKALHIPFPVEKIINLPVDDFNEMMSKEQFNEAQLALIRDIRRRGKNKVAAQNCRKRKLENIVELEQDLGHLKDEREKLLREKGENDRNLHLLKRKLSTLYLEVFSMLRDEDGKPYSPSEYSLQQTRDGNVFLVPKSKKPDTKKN

[4] = Toxicity in […] assessed as behavior changes at 400 mg/kg, ip observed after 12 hrs; type: organism-based; details: in vivo
[5] = Toxicity in […] assessed as organism death at 400 mg/kg, ip observed for 7 day; type: organism-based; details: in vivo
[6] = biological target: T1, Nuclear factor erythroid 2-related factor 2 (Rattus norvegicus); test: Induction of Nrf2 nuclear translocation in rat PC-12 cells assessed as H2O2-induced GSH-px level at 2.5 uM incubated for 1 hr followed by H2O2 stimulation and measured after 5 hrs (reference value: 45.92 +/- 3.64 mU/mg); type: cell-based; details: time 6.0 hrs
[7] = Clearance in Sprague-Dawley rat at 2 mg/kg, iv measured upto 24 hrs by LC-MS/MS analysis; type: ADME, organism-based; details: in vivo
[8] = biological target: T1, Nuclear factor erythroid 2-related factor 2 (Rattus norvegicus); test: Induction of Nrf2 nuclear translocation in rat PC-12 cells assessed as H2O2-induced GSH-px level incubated for 1 hr followed by H2O2 stimulation and measured after 5 hrs; type: cell-based; details: dose 2.5-10 µM, time 6.0 hrs
PC-12 [9] = test: Inhibition of H2O2-induced apoptosis in rat PC-12 cells assessed as reduction in condensed nuclei incubated for 1 hr followed by H2O2 stimulation and measured after 5 hrs by Hoechst 33258 staining based fluorescence microscopy; type: functional, cell-based; details: dose 2.5-10 µM, time 6.0 hrs
Rattus norvegicus = test: Neuroprotective activity in Sprague-Dawley rat model of middle cerebral artery occlusion-induced ischemic injury assessed as increase in SOD level at 3 to 30 mg/kg, ip administered TID and measured after 24 hrs by ELISA; type: functional, organism-based; details: dose 3-30 mg/kg
[10] = biological target: T1, Nuclear factor erythroid 2-related factor 2 (Rattus norvegicus); test: Induction of Nrf2 nuclear translocation in rat PC-12 cells assessed as SNP-induced GSH level at 10 uM incubated for 1 hr followed by SNP stimulation and measured after 24 hrs (reference value: 75.78 +/- 1.74 nM/mg); type: cell-based; details: time 25.0 hrs
[11] = Toxicity in […] assessed as body weight at 400 mg/kg, ip observed after immediately (reference value: 24.4 to 28.4 g); type: organism-based; details: in vivo
PC-12 [12] = test: Cytoprotective activity against H2O2-induced cell death in rat PC12 cells assessed as increase in cell viability at 10 uM incubated for 1 hr followed by H2O2 stimulation and measured after 5 hrs in presence of LY294002 by MTT assay; type: functional, cell-based; details: time 6.0 hrs
[13] = Clearance in Sprague-Dawley rat at 20 mg/kg, po measured upto 24 hrs by LC-MS/MS analysis; type: ADME, organism-based; details: in vivo
PC-12 [14] = test: Antioxidant activity in rat PC-12 cells assessed as reduction in SNP-induced ROS level incubated for 1 hr followed by SNP stimulation and measured after 24 hrs by DCFH-DA staining based fluorescence microscopy; type: functional, cell-based; details: dose 2.5-10 µM, time 25.0 hrs
[15] = AUC (0 to infinity) in Sprague-Dawley rat at 2 mg/kg, iv measured upto 24 hrs by LC-MS/MS analysis; type: ADME, organism-based; set-up: route intravenous, dose 2 mg/kg, time <=24; details: in vivo
PC-12 [16] = test: Inhibition of H2O2-induced mitochondrial membrane potential loss in rat PC-12 cells assessed as increase in red fluoresence at 2.5 to 10 uM incubated for 1 hr followed by H2O2 stimulation and measured after 5 hrs by JC-1 staining based fluorescence microscopy; type: functional, cell-based; details: dose 2.5-10 µM, time 6.0 hrs
PC-12 [17] = test: Inhibition of SNP-induced mitochondrial membrane potential loss in rat PC-12 cells assessed as increase in red fluoresence at 2.5 to 10 uM incubated for 1 hr followed by SNP stimulation and measured after 24 hrs by JC-1 staining based fluorescence microscopy; type: functional, cell-based; details: dose 2.5-10 µM, time 25.0 hrs
[18] = AUC (0 to infinity) in Sprague-Dawley rat at 20 mg/kg, po measured upto 24 hrs by LC-MS/MS analysis; type: ADME, organism-based; set-up: route oral, dose 20 mg/kg, time <=24; details: in vivo
PC-12 [19] = test: Cytoprotective activity against SNP-induced cell death in rat PC-12 cells assessed as increase in cell viability incubated for 1 hr followed by SNP stimulation and measured after 24 hrs by LDH assay; type: functional, cell-based; details: time 25.0 hrs
[20] = Toxicity in […] assessed as body weight at 400 mg/kg, ip measured on day 3 (reference value: 24.4 to 28.4 g); type: organism-based; details: in vivo, 72 h, time 3 day

## COc1ccc(-c2nc(-c3ccccc3O)n(-c3ccc(S(N)(=O)=O)cc3)n2)c(O)c1
PC-12 [1]
  Activity: inactive
[2]
  Activity: 24.3 g
[3]
  Activity: 70.4 nM/mg
[4]
  Activity: Non-Toxic
[5]
  LD50 at 168 h: 400 mg/kg
[6]
  Activity: 51 mU/mg
[7]
  clearance: 15 mL/min/kg
[8]
  Activity: Dose-dependent effect
PC-12 [9]
  inhibition: Dose-dependent effect
Rattus norvegicus
  Activity: Active
[10]
  Activity: 89.2 nM/mg
[11]
  Activity: 24.6 g
PC-12 [12]
  Activity: inactive
[13]
  CL/F: 23.3 mL/min/kg
PC-12 [14]
  inhibition: Dose-dependent effect
[15]
  AUC(0-inf): 2330 ng·h/mL
PC-12 [16]
  inhibition: Active
PC-12 [17]
  inhibition: Active
[18]
  AUC(0-inf): 14200 ng·h/mL
PC-12 [19]
  Activity: Dose-dependent effect
[20]
  Activity: 24.5 g
